Assay results from patent publication US7579359B2, “1-alkoxy 1H-imidazo ring systems and methods” (3M Innovative Properties Company, priority 2004, dated 2009).

melting point [°C]	SMILES
179 to 181	CCOCc1nc2c(N)nc3ccccc3c2n1OC(C)C [Example 18, 2-(Ethoxymethyl)-1-isopropoxy-1H-imidazo[4,5-c]quinolin-4-amine]
195 to 197	COn1c(C(C)(C)C)nc2c(N)nc3ccccc3c21 [Example 15, 2-Tert-butyl-1-methoxy-1H-imidazo[4,5-c]quinolin-4-amine]
177 to 179	Nc1nc2ccccc2c2c1nc(-c1ccccc1)n2OCc1ccccc1 [Example 16, 1-(Benzyloxy)-2-phenyl-1H-imidazo[4,5-c]quinolin-4-amine]
192 to 194	CCCc1nc2c(N)nc3ccccc3c2n1OCC(N)=O [Example 33, 2-[(4-Amino-2-propyl-1H-imidazo[4,5-c]quinolin-1-yl)oxy]acetamide]
175 to 178	CC(C)On1c(C2CCCCC2)nc2c(N)nc3ccccc3c21 [Example 12, 2-Cyclohexyl-1-isopropoxy-1H-imidazo[4,5-c]quinolin-4-amine]
243	Cc1nc2c(N)nc3ccccc3c2n1OC(C)C [Example 6, 1-Isopropoxy-2-methyl-1H-imidazo[4,5-c]quinolin-4-amine]
188 to 191	CC(C)On1c(-c2ccccc2)nc2c(N)nc3ccccc3c21 [Example 11, 1-Isopropoxy-2-phenyl-1H-imidazo[4,5-c]quinolin-4-amine]
237 to 238	COn1c(C)nc2c(N)nc3ccccc3c21 [Example 7, 1-Methoxy-2-methyl-1H-imidazo[4,5-c]quinolin-4-amine]
210 to 211	CCCc1nc2c(N)nc3ccccc3c2n1OC [Example 1, 1-Methoxy-2-propyl-1H-imidazo[4,5-c]quinolin-4-amine]
242 to 243	CCc1nc2c(N)nc3ccccc3c2n1OC(C)C [Example 5, 2-Ethyl-1-isopropoxy-1H-imidazo[4,5-c]quinolin-4-amine]
197 to 199	CCCCc1nc2c(N)nc3ccccc3c2n1OC [Example 27, 2-Butyl-1-methoxy-1H-imidazo[4,5-c]quinolin-4-amine]
217 to 219	COn1c(C(C)C)nc2c(N)nc3ccccc3c21 [Example 25, 2-Isopropyl-1-methoxy-1H-imidazo[4,5-c]quinolin-4-amine]
224 to 225	CC(C)On1cnc2c(N)nc3ccccc3c21 [Example 23, 1-Isopropoxy-1H-imidazo[4,5-c]quinolin-4-amine]
179 to 181	CCOn1cnc2c(N)nc3ccccc3c21 [Example 20, 1-Ethoxy-1H-imidazo[4,5-c]quinolin-4-amine]
220 to 222	COn1c(C2CCCCC2)nc2c(N)nc3ccccc3c21 [Example 13, 2-Cyclohexyl-1-methoxy-1H-imidazo[4,5-c]quinolin-4-amine]
241 to 243	COn1c(-c2ccccc2)nc2c(N)nc3ccccc3c21 [Example 10, 1-Methoxy-2-phenyl-1H-imidazo[4,5-c]quinolin-4-amine]
198 to 199	CCCc1nc2c(N)nc3ccccc3c2n1OCC [Example 3, 1-Ethoxy-2-propyl-1H-imidazo[4,5-c]quinolin-4-amine]
219 to 221	CCOn1c(C)nc2c(N)nc3ccccc3c21 [Example 9, 1-Ethoxy-2-methyl-1H-imidazo[4,5-c]quinolin-4-amine]
204 to 206	CC(C)On1c(CO)nc2c(N)nc3ccccc3c21 [Example 19]
187 to 189	CC(C)On1c(C(C)(C)C)nc2c(N)nc3ccccc3c21 [Example 14, 2-Tert-butyl-1-isopropoxy-1H-imidazo[4,5-c]quinolin-4-amine]
215 to 217	Cc1nc2c(N)nc3ccccc3c2n1OCc1ccccc1[N+](=O)[O-] [Example 29, 2-Methyl-1-[(2-nitrobenzyl)oxy]-1H-imidazo[4,5-c]quinolin-4-amine]
177 to 179	CC(C)On1c(C(C)C)nc2c(N)nc3ccccc3c21 [Example 26, 1-Isopropoxy-2-isopropyl-1H-imidazo[4,5-c]quinolin-4-amine]
237 to 239	Cc1nc2c(N)nc3ccccc3c2n1OCCOc1ccccc1 [Example 31, 2-Methyl-1-(2-phenoxyethoxy)-1H-imidazo[4,5-c]quinolin-4-amine]
164 to 166	CCCc1nc2c(N)nc3ccccc3c2n1OCc1ccccc1 [Example 2, 1-Benzyloxy-2-propyl-1H-imidazo[4,5-c]quinolin-4-amine]
232 to 235	CCCc1nc2c(N)nc3ccccc3c2n1O [Example 24, 4-Amino-2-propyl-1H-imidazo[4,5-c]quinolin-1-ol]
216 to 217	CCc1nc2c(N)nc3ccccc3c2n1OC [Example 4, 2-Ethyl-1-methoxy-1H-imidazo[4,5-c]quinolin-4-amine]
238 to 240	COn1cnc2c(N)nc3ccccc3c21 [Example 22, 1-Methoxy-1H-imidazo[4,5-c]quinolin-4-amine]
118 to 119	CCCCc1nc2c(N)nc3ccccc3c2n1OC(C)C [Example 28, 2-Butyl-1-isopropoxy-1H-imidazo[4,5-c]quinolin-4-amine]

SMILES	melting point [°C]
Cc1nc2c(N)nc3ccccc3c2n1OCC(C)C [Example 8, 1-Isobutoxy-2-methyl-1H-imidazo[4,5-c]quinolin-4-amine]	215 to 216
Cc1nc2c(N)nc3ccccc3c2n1OC(C)(C)C [Example 30, 1-tert-Butoxy-2-methyl-1H-imidazo[4,5-c]quinolin-4-amine]	255 to 257
